In ChEMBL document CHEMBL3885881, “DrugMatrix”:

Species: Rattus norvegicus
Assay: DrugMatrix - Regimen: Daily Repeat
Format: toxicity, organism-based, Sprague-Dawley
Set-up: regimen Daily Repeat, gender Male, age 6-8 weeks
Details: in vivo, po, route oral GAVAGE, […]; for ABSOLUTE BASOPHIL / ABSOLUTE EOSINOPHIL / ABSOLUTE LYMPHOCYTE / ABSOLUTE MONOCYTE / ABSOLUTE SEGMENTED NEUTROPHIL / BASOPHIL / EOSINOPHIL / ERYTHROCYTE COUNT / HEMATOCRIT / HEMOGLOBIN / LEUKOCYTE COUNT / LYMPHOCYTE / MEAN CORPUSCULAR HEMOGLOBIN / MEAN CORPUSCULAR HEMOGLOBIN CONCENTRATION / MONOCYTE / NEUTROPHIL / NUCLEATED RED BLOOD CELLS / PLATELET COUNT: tissue Blood; for ALANINE AMINOTRANSFERASE / ALBUMIN / ALKALINE PHOSPHATASE / ASPARTATE AMINOTRANSFERASE / BLOOD UREA NITROGEN / CARBON DIOXIDE / CHLORIDE / CHOLESTEROL / CREATINE PHOSPHOKINASE / CREATININE / LACTATE DEHYDROGENASE / LIPASE / PHOSPHORUS / POTASSIUM / SODIUM / TOTAL BILIRUBIN / TOTAL PROTEIN / URIC ACID: tissue Plasma
[1] = 0 mg/kg, 72 h, dose level Control, time 3 day
[2] = 0 mg/kg, 120 h, dose level Control, time 5 day
[3] = 10 mg/kg, 72 h, dose level Low, time 3 day

CN(CCOc1ccc(CC2SC(=O)NC2=O)cc1)c1ccccn1 (stereo not drawn) [ROSIGLITAZONE]
ABSOLUTE BASOPHIL [1]: 0 CELLS/uL | ABSOLUTE EOSINOPHIL [1]: 14 CELLS/uL | ABSOLUTE LYMPHOCYTE [1]: 11144.67 CELLS/uL | ABSOLUTE MONOCYTE [1]: 22.5 CELLS/uL | ABSOLUTE SEGMENTED NEUTROPHIL [1]: 535.5 CELLS/uL | BASOPHIL [1]: 0% | EOSINOPHIL [1]: 0.17% | ERYTHROCYTE COUNT [1]: 5.08 x10E6/uL | HEMATOCRIT [1]: 32.32% | HEMOGLOBIN [1]: 12.87 G/DL | LEUKOCYTE COUNT [1]: 11.72 x10E3/uL | LYMPHOCYTE [1]: 94.67% | MEAN CORPUSCULAR HEMOGLOBIN [1]: 25.37 pg | MEAN CORPUSCULAR HEMOGLOBIN CONCENTRATION [1]: 39.85 G/DL | MONOCYTE [1]: 0.17% | NEUTROPHIL [1]: 5% | NUCLEATED RED BLOOD CELLS [1]: 0 /100WBC | PLATELET COUNT [1]: 1084 x10E3/uL | ALANINE AMINOTRANSFERASE [1]: 67.5 u/L | ALBUMIN [1]: 4.02 G/DL | ALKALINE PHOSPHATASE [1]: 374.17 u/L | ASPARTATE AMINOTRANSFERASE [1]: 83.5 u/L | BLOOD UREA NITROGEN [1]: 14.5 mg/dL | CARBON DIOXIDE [1]: 30 mmol/L | CHLORIDE [1]: 100.5 MEQ/L | CHOLESTEROL [1]: 71.33 mg/dL | CREATINE PHOSPHOKINASE [1]: 268.33 u/L | CREATININE [1]: 0.16 mg/dL | LACTATE DEHYDROGENASE [1]: 81.17 u/L | LIPASE [1]: 16.67 u/L | PHOSPHORUS [1]: 10.07 mg/dL | POTASSIUM [1]: 5.03 MEQ/L | SODIUM [1]: 142.92 MEQ/L | TOTAL BILIRUBIN [1]: 0.17 mg/dL | TOTAL PROTEIN [1]: 5.63 G/DL | URIC ACID [1]: 0.5 mg/dL | ABSOLUTE BASOPHIL [2]: 0 CELLS/uL | ABSOLUTE EOSINOPHIL [2]: 37.5 CELLS/uL | ABSOLUTE LYMPHOCYTE [2]: 8049.5 CELLS/uL | ABSOLUTE MONOCYTE [2]: 82.83 CELLS/uL | ABSOLUTE SEGMENTED NEUTROPHIL [2]: 646.83 CELLS/uL | BASOPHIL [2]: 0% | EOSINOPHIL [2]: 0.5% | ERYTHROCYTE COUNT [2]: 5.36 x10E6/uL | HEMATOCRIT [2]: 33.9% | HEMOGLOBIN [2]: 13.02 G/DL | LEUKOCYTE COUNT [2]: 8.82 x10E3/uL | LYMPHOCYTE [2]: 90.17% | MEAN CORPUSCULAR HEMOGLOBIN [2]: 24.32 pg | MEAN CORPUSCULAR HEMOGLOBIN CONCENTRATION [2]: 38.42 G/DL | MONOCYTE [2]: 1.17% | NEUTROPHIL [2]: 8.17% | NUCLEATED RED BLOOD CELLS [2]: 0.17 /100WBC | PLATELET COUNT [2]: 1231.5 x10E3/uL | ALANINE AMINOTRANSFERASE [2]: 62 u/L | ALBUMIN [2]: 3.97 G/DL | ALKALINE PHOSPHATASE [2]: 303.67 u/L | ASPARTATE AMINOTRANSFERASE [2]: 84.5 u/L | BLOOD UREA NITROGEN [2]: 14.83 mg/dL | CARBON DIOXIDE [2]: 31.83 mmol/L | CHLORIDE [2]: 97 MEQ/L | CHOLESTEROL [2]: 68.83 mg/dL | CREATINE PHOSPHOKINASE [2]: 411.33 u/L | CREATININE [2]: 0.16 mg/dL | LACTATE DEHYDROGENASE [2]: 88.5 u/L | LIPASE [2]: 9.5 u/L | PHOSPHORUS [2]: 9.98 mg/dL | POTASSIUM [2]: 5.72 MEQ/L | SODIUM [2]: 141.62 MEQ/L | TOTAL BILIRUBIN [2]: 0.1 mg/dL | TOTAL PROTEIN [2]: 5.67 G/DL | URIC ACID [2]: 0.52 mg/dL | ABSOLUTE BASOPHIL [3]: 0 CELLS/uL | ABSOLUTE EOSINOPHIL [3]: 0 CELLS/uL | ABSOLUTE LYMPHOCYTE [3]: 11817.33 CELLS/uL | ABSOLUTE MONOCYTE [3]: 150.67 CELLS/uL | ABSOLUTE SEGMENTED NEUTROPHIL [3]: 1032 CELLS/uL | BASOPHIL [3]: 0% | EOSINOPHIL [3]: 0% | ERYTHROCYTE COUNT [3]: 4.98 x10E6/uL | HEMATOCRIT [3]: 32.63% | HEMOGLOBIN [3]: 12.83 G/DL | LEUKOCYTE COUNT [3]: 13 x10E3/uL | LYMPHOCYTE [3]: 91.33% | MEAN CORPUSCULAR HEMOGLOBIN [3]: 25.77 pg | MEAN CORPUSCULAR HEMOGLOBIN CONCENTRATION [3]: 39.37 G/DL | MONOCYTE [3]: 1% | NEUTROPHIL [3]: 7.67% | NUCLEATED RED BLOOD CELLS [3]: 0 /100WBC | PLATELET COUNT [3]: 1118.67 x10E3/uL | ALANINE AMINOTRANSFERASE [3]: 64.67 u/L | ALBUMIN [3]: 4 G/DL | ALKALINE PHOSPHATASE [3]: 377.67 u/L | ASPARTATE AMINOTRANSFERASE [3]: 83.67 u/L | BLOOD UREA NITROGEN [3]: 16.33 mg/dL | CARBON DIOXIDE [3]: 32.67 mmol/L | CHLORIDE [3]: 99.33 MEQ/L | CHOLESTEROL [3]: 66.33 mg/dL | CREATINE PHOSPHOKINASE [3]: 223.67 u/L | CREATININE [3]: 0.16 mg/dL | LACTATE DEHYDROGENASE [3]: 89 u/L | LIPASE [3]: 9.67 u/L | PHOSPHORUS [3]: 9.83 mg/dL | POTASSIUM [3]: 5.42 MEQ/L | SODIUM [3]: 143.77 MEQ/L | TOTAL BILIRUBIN [3]: 0.13 mg/dL | TOTAL PROTEIN [3]: 5.7 G/DL | URIC ACID [3]: 0.53 mg/dL
